The results in this text go back to patent US6596772B1, “Phosphate mimics and methods of treatment using phosphatase inhibitors” (Sugen, Inc., priority 1999, dated 2003).

Common to all, as to assay: PTP IC50 assay, pNPP or FDP as substrate
Holding throughout (type): biochemical

In test [1] the target is T1, PTP SHP2 (Homo sapiens, UniProt Q06124).
T1 construct: The catalytic domain was amplified using the following oligonucleotides; made in house; host or cells: Sf-9 insect cells (pFastBac-G2T)
T1 sequence (Q06124 247-517 limits assumed): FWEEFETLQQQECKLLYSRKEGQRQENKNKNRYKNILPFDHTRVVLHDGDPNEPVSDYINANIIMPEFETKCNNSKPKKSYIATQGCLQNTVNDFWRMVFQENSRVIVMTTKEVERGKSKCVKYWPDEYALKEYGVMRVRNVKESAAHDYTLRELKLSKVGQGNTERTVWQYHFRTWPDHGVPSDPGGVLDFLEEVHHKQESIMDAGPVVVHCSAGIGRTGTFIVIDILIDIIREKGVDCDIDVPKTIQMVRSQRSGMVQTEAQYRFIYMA
On the procedure: (§1) The following in vitro assay procedure is preferred to determine the level of activity and effect of the different compounds of the present invention on one or more of the PTPs. Similar assays can be designed along the same lines for any PTP using techniques well known in the art.
(§2) The catalytic assays described herein are performed in a 96-well format. The general procedure begins with the determination of PTP optimal pH using a three-component buffer system that minimizes ionic strength variations across a wide range of buffer pH. Next, the Michaelis-Menten constant, or Km, is determined for each specific substrate-PTP system. This Km value is subsequently used as the substrate reaction concentration for compound screening. Finally, the test PTP is exposed to varying concentrations of compound for fifteen minutes and allowed to react with substrate for ten minutes. The results are plotted as percent inhibition versus compound concentration and the IC50 interpolated from the plot.
(§3) All assays were performed using pNPP or FDP as substrate. The optimum pH was determined for each PTP used.
(§4) PTPase activity was assayed at 25° C. in a 100-μl reaction mixture containing an appropriate concentration of pNPP or FDP as substrate. The reaction was initiated by addition of the PTP and quenched after 10 min by addition of 50 μl of IN NaOH. The non-enzymatic hydrolysis of the substrate was corrected by measuring the control without the addition of the enzyme. The amount of p-nitrophenol produced was determined from the absorbance at 410 nm. To determine the kinetic parameter, Km, the initial velocities were measured at various substrate concentrations and the data were fitted to the Michaelis equation where velocity=(Vmax*[S])/(Km+[S]), and [S]=substrate reaction concentration.
(§5) The effect of the compounds on PTP was evaluated at 25° C. using pNPP or FDP as substrate. PTP was pre-incubated for fifteen minutes with various concentrations of compound. Substrate was then added at a fixed concentration (usually equal to the Km previously calculated). After 10 minutes, NaOH was added to stop the reaction. The hydrolysis of pNPP was followed at 410 nm on the Biotek Powerwave 200 microplate scanning spectrophotometer. The percent inhibition was calculated as follows: Percent Inhibition=[(control signal−compound signal)/control signal] ×100%. The IC50 was then determined by interpolation of a percent inhibition versus compound concentration plot.
(§6) Plasmids designed for bacterial GST-PTP fusion protein expression were derived by insertion of PCR-generated human PTP fragments into pGEX vectors (Pharmacia Biotech). Several of these constructs were then used to subclone phosphatases into pFastBac-1for expression in Sf-9 insect cells. Oligonucleotides used for the initial amplification of PTP genes are shown below. The cDNAs were prepared using the Gilbo BRL superscript preamplification system on RNAs purchased from Clontech.
SHP-2 cDNA was used as described earlier (Vogel W., et al.,1993, Science, 259:1611-4). The catalytic domain was amplified using the following oligonucleotides 5′oligo: 5′-[…]-3′ (SEQ ID NO: 2) 3′oligo: 5′-[…]-3′ (SEQ ID NO: 3) and subsequently subcloned into BamH1-Xba-1 sites. It was then ligated into pfas Bac-G2T BamH1-Xba-1 sites.

Test [2] has as its target T2, PTP EPSILON (Homo sapiens, UniProt P23469).
T2 construct: made in house; host or cells: Sf-9 insect cells (pFastBac-G2T); a pGEX 6P-1 construct also existed
On the procedure:
as §1, §2, §3, §4, §5, §6
The PTPepsilon cDNA was amplified from human placenta single-strand cDNA (Clontech RNA) using the following oligonucleotides: 5′oligo: 5′-[…]-3′ (SEQ ID NO: 6) 3′oligo: 5′-[…]-3′ (SEQ ID NO: 7) After cloning this PCR product into the Bam HI/Xho I sites of pGEX 6P-1, this phosphatase was subcloned using the same restriction sites in pFastBac-G2T.

Test [3] deals with T3, PTP ALPHA (Homo sapiens, UniProt P18433).
T3 construct: RTPα intracellular domain construct was obtained; made in house; host or cells: E. coli BL-21 (pGEX 3X)
As to conditions: 25° C. As for the experimental part: as §1, §2, §3, §4, §5, §6
RTPα intracellular domain construct was obtained, Schlessinger et al., U.S. Pat. No. 5,888,794, the contents of which are hereby incorporated in their entirety into the present application. The RTPα fragment was cloned into pGEX 3× using the following procedure. The portion from EclX I/Xma III/Eag I (N-terminus blunted by Klenow) to Eco RV was cloned into the Sma I site. The EclX I site is approximately 15 residues downstream of the transmembrane domain.

The target in test [4] is T4, PTP MEG2 (Homo sapiens, UniProt P43378).
T4 construct: made in house; host or cells: E. coli BL-21 (pGEX 6P-1)
T4 sequence (P43378 262-593 limits assumed): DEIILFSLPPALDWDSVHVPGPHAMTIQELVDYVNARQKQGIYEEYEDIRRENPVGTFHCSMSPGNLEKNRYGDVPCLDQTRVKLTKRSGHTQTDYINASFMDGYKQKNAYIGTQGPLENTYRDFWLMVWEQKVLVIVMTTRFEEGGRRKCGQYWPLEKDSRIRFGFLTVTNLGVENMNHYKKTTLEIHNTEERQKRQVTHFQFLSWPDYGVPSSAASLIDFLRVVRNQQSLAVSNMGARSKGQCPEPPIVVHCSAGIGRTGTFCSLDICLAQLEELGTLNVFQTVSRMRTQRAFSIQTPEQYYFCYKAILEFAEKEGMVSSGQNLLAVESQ
As for the experimental part: as §1, §2, §3, §4, §5, §6
The PTP MEG2 cDNA was amplified from human placenta single strand cDNA (Clontech RNA) using the following oligonucleotides: 5′oligo: 5′-[…]-3′ (SEQ ID NO: 8) 3′oligo: 5′-[…]-3′ (SEQ ID NO: 9) and subsequently ligated into pGex 6P-1 Eco RI/Xho I sites.

Setting [5] is: pNPP or FDP as substrate, 25° C., read-out: PTP IC50 SHP2.
Setting [6] is: pNPP or FDP as substrate, 25° C., read-out: PTP IC50 Epilson.
[7] abbreviates: pNPP or FDP as substrate, 25° C., read-out: PTP IC50 MEG2.

Each structure is given as a SMILES string. Where two headings read alike, the source gives them in different places. Where only a bound is given, the exact number is not on record here.

By IC50 is commonly meant the concentration that gives 50% inhibition.

T2 sequence (P23469 80-393 limits assumed): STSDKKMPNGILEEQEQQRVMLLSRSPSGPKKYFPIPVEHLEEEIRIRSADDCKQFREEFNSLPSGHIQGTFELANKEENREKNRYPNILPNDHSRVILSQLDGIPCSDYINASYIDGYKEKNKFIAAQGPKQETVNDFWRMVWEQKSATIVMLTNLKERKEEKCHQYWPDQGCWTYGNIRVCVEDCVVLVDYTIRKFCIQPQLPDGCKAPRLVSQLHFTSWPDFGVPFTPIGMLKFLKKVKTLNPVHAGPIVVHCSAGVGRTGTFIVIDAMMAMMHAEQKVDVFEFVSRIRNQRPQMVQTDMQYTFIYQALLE

For the compound `O=S(=O)(c1ccc(COCc2ccc(S(=O)(=O)C(F)(F)F)cc2)cc1)C(F)(F)F` [Example 1, Bis (4-trifluoromethylsulfonylbenzyl) ether], the IC50 in test [1] (setting [5]) is 2 µM; in test [2] (setting [6]), 24.3 µM; in test [3] it was over 100 µM; in test [4] (setting [7]) it was 55 µM.
For `O=S(=O)(c1ccc(COc2ccc(S(=O)(=O)C(F)(F)F)cc2)cc1)C(F)(F)F` [Example 2, 4-Trifluoromethylsulfonylbenzyl 4-trifluoromethylsulfonylphenyl ether] the same measures were 42.6 µM, 8.1 µM, over 100 µM and 62.1 µM.
For `O=C(c1ccccc1)N(Cc1ccc(S(=O)(=O)C(F)(F)F)cc1)Cc1ccc(S(=O)(=O)C(F)(F)F)cc1` [Example 3, N,N-Bis(4-trifluoromethylsulfonylbenzyl)benzamide] the same measures were 74.5 µM, 28.1 µM, over 100 µM and 85.9 µM.
For `O=S(=O)(c1ccc(CCc2ccc(S(=O)(=O)C(F)(F)F)cc2)cc1)C(F)(F)F` [Example 4, 1,2-Bis(4-trifluoromethylsulfonylphenyl)ethane] the same measures were over 100 µM, 16.6 µM, over 100 µM and 45.9 µM.
With `O=C(NCc1ccc(S(=O)(=O)C(F)(F)F)cc1)c1ccc(S(=O)(=O)C(F)(F)F)cc1` [Example 5, N-(4-Trifluoromethylsulfonylbenzyl)-4-trifluoromethylsulfonylbenzamide], the concentration for half-maximal inhibition (IC50) was over 100 µM in test [1] (setting [5]), 38.6 µM in test [2] (setting [6]), over 100 µM in test [3] and over 100 µM in test [4] (setting [7]).
In the case of `O=C(NCc1ccc(S(=O)(=O)C(F)(F)F)cc1)c1ccccc1` [Example 6, N-(4-Trifluoromethylsulfonylbenzyl)benzamide], the IC50 in test [1] (setting [5]), in test [2] (setting [6]), in test [3] and in test [4] (setting [7]) was over 100 µM throughout.
Turning to `CCOC(=O)COc1ccc(S(=O)(=O)c2ccc(Oc3ccc(S(=O)(=O)C(F)(F)F)cc3[N+](=O)[O-])cc2)cc1` [Example 17, {4-[4-(2-Nitro-4-trifluoromethanesulfonyl-phenoxy)-benzenesulfonyl]-phenoxy}-acetic acid ethyl ester], the results for the IC50 in test [1] (setting [5]), in test [2] (setting [6]) and in test [4] (setting [7]) were over 100 µM, over 100 µM and 88.5 µM, respectively.
For `O=C(O)c1ccc(Oc2cccc(Oc3ccc(S(=O)(=O)C(F)(F)F)cc3)c2)cc1` [Example 18, 4-[3-(4-Trifluoromethanesulfonyl-phenoxy)-phenoxy]-benzoic acid], the concentration for half-maximal inhibition (IC50) in test [1] (setting [5]) was 18.4 µM; in test [2] (setting [6]), 0.77 µM; in test [3], 40.4 µM; in test [4] (setting [7]), 44 µM.
Take `CCOC(=O)COc1ccc(S(=O)(=O)c2ccc(Oc3ccc(S(=O)(=O)C(F)(F)F)cc3)cc2)cc1` [Example 19, {4-[4-(4-trifluoromethanesulfonyl-phenoxy)-benzenesulfonyl]-phenoxy}-acetic acid ethyl ester]: the IC50 in test [1] (setting [5]) is over 100 µM; in test [2] (setting [6]) it was 31.4 µM; in test [3] it was over 100 µM; in test [4] (setting [7]) it was 52.2 µM.
Turning to `O=C(Cc1ccccc1CC(=O)Nc1cccc(S(=O)(=O)C(F)(F)F)c1)Nc1cccc(S(=O)(=O)C(F)(F)F)c1` [Example 20, N-(3-Trifluoromethanesulfonyl-phenyl)-2-{2-[(3-trifluoromethanesulfonyl-phenylcarbamoyl)-methyl]-phenyl}-acetamide], the IC50 is 54.3 µM in test [1] (setting [5]), 7.5 µM in test [2] (setting [6]), over 100 µM in test [3] and over 100 µM in test [4] (setting [7]).
For the compound `O=C(Cc1cccc(CC(=O)Nc2cccc(S(=O)(=O)C(F)(F)F)c2)c1)Nc1cccc(S(=O)(=O)C(F)(F)F)c1` [Example 21, N-(3-Trifluoromethanesulfonyl-phenyl)-2-{3-[(3-trifluoromethanesulfonyl-phenylcarbamoyl)-methyl]-phenyl}-acetamide], the IC50 was 56.8 µM in test [1] (setting [5]), 57.8 µM in test [2] (setting [6]), over 100 µM in test [3] and 49.4 µM in test [4] (setting [7]).
Consider `O=S(=O)(Nc1ccc(Oc2ccc(NS(=O)(=O)C(F)(F)F)cc2)cc1)C(F)(F)F` [Example 73, Bis(4-trifluoromethylsulfonamidophenyl) ether], for which the results for the IC50 in test [1] (setting [5]), in test [2] (setting [6]) and in test [4] (setting [7]) were over 100 µM, 23.1 µM and over 100 µM, respectively.
In the case of `O=S(=O)(Nc1ccc(Oc2cccc(Oc3ccc(NS(=O)(=O)C(F)(F)F)cc3)c2)cc1)C(F)(F)F` [Example 74, 1,3-Bis(4-trifluoromethylsulfonamidophenoxy)benzene], the IC50 in test [1] (setting [5]) amounted to 2.8 µM; in test [2] (setting [6]) it was 1.8 µM; in test [4] (setting [7]), 58.7 µM.
For `O=S(=O)(Nc1ccc(-c2nnc(-c3ccc(NS(=O)(=O)C(F)(F)F)cc3)o2)cc1)C(F)(F)F` [Example 75, 2,5-Bis(4-trifluoromethylsulfonamidophenyl)-(1,3,4)oxadiazole], the IC50 was determined as 8 µM in test [1] (setting [5]), 11.5 µM in test [2] (setting [6]) and 12.8 µM in test [4] (setting [7]).
As to `CC(C)(c1ccc(NS(=O)(=O)C(F)(F)F)cc1)c1ccc(C(C)(C)c2ccc(NS(=O)(=O)C(F)(F)F)cc2)cc1` [Example 76], the half-maximal inhibitory concentration (IC50) worked out at 1.8 µM in test [1] (setting [5]), 8.4 µM in test [2] (setting [6]) and 12.9 µM in test [4] (setting [7]).
As for `Nc1ccc(Oc2ccc(Oc3ccc(N)cc3)cc2)cc1` [NH2], the IC50 in test [1] (comparison of R groups, read-out: IC50 SHP2) is over 100 µM; in test [2] (comparison of R groups, read-out: IC50 Epsilon), over 100 µM; in test [4] (comparison of R groups, read-out: IC50 MEG2), over 100 µM.
